Source: the supplement of paper PMC13207355

Key:
Settings in all cases: exposure time: 72 h
E21 [1] = patient-derived glioblastoma stem cells of mesenchymal subtype; assay: phenotypic distance (Euclidean, principal components) from DMSO controls (arbitrary units); higher = stronger morphological change
E31 [2] = patient-derived glioblastoma stem cells of proneural subtype; assay: as above
E57 [3] = patient-derived glioblastoma stem cells of mesenchymal subtype; assay: as above
E28 [4] = patient-derived glioblastoma stem cells of classical subtype; assay: as above
E13 [5] = patient-derived glioblastoma stem cells of classical subtype; assay: as above
FT3469 [6] = normal neural stem cell line; assay: as above
E34 [7] = patient-derived glioblastoma stem cells of proneural subtype; assay: as above
E21 [8] = assay: surviving fraction (nuclei count normalised to DMSO); higher = more cells surviving (less toxic)
E31 [9] = assay: as above
E57 [10] = assay: as above
E28 [11] = assay: as above
E13 [12] = assay: as above
FT3469 [13] = assay: as above
E34 [14] = assay: as above
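Wherever phenotypic distance (Euclidean, principal components) from DMSO controls is given: cell Painting imaging in 384-well plates, CellProfiler features reduced to at least 20 principal components, Euclidean distance versus same-plate DMSO vehicle wells (0.1% v/v), median over six images per well.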
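Wherever surviving fraction (nuclei count normalised to DMSO) is given: nuclei counted by high-content imaging of Hoechst-stained cells in laminin-coated 384-well plates, relative to 0.1% DMSO vehicle wells, with staurosporine as cell-death control.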

CC(C)C[C@H](NC(=O)CNC(=O)c1cc(Cl)ccc1Cl)B(O)O [Ixazomib]
Settings	phenotypic distance	surviving fraction
E13 [5], 4.1 nM	4.64	–
E13 [5], 12.3 nM	9.62	–
E13 [5], 37 nM	17.4	–
E13 [5], 111.1 nM	10.6	–
E13 [5], 333.3 nM	11.8	–
E13 [5], 1000 nM	8.11	–
E13 [5], 3000 nM	11.2	–
E13 [12], 4.1 nM	–	0.298
E13 [12], 12.3 nM	–	0.0451
E13 [12], 37 nM	–	0.0121
E13 [12], 111.1 nM	–	0.013
E13 [12], 333.3 nM	–	0.0174
E13 [12], 1000 nM	–	0.0252
E13 [12], 3000 nM	–	0.00174
E21 [1], 4.1 nM	6.82	–
E21 [1], 12.3 nM	7.74	–
E21 [1], 37 nM	11.3	–
E21 [1], 111.1 nM	9.17	–
E21 [1], 333.3 nM	11.6	–
E21 [1], 1000 nM	10.7	–
E21 [1], 3000 nM	14.7	–
E21 [8], 4.1 nM	–	0.275
E21 [8], 12.3 nM	–	0.0747
E21 [8], 37 nM	–	0.0159
E21 [8], 111.1 nM	–	0.0149
E21 [8], 333.3 nM	–	0.0187
E21 [8], 1000 nM	–	0.0308
E21 [8], 3000 nM	–	0.00187
E28 [4], 4.1 nM	2.24	–
E28 [4], 12.3 nM	3.91	–
E28 [4], 37 nM	4.89	–
E28 [4], 111.1 nM	4.69	–
E28 [4], 333.3 nM	6.98	–
E28 [4], 1000 nM	6.52	–
E28 [4], 3000 nM	5.85	–
E28 [11], 4.1 nM	–	0.582
E28 [11], 12.3 nM	–	0.296
E28 [11], 37 nM	–	0.14
E28 [11], 111.1 nM	–	0.149
E28 [11], 333.3 nM	–	0.0863
E28 [11], 1000 nM	–	0.102
E28 [11], 3000 nM	–	0.0701
E31 [2], 4.1 nM	3.6	–
E31 [2], 12.3 nM	5.68	–
E31 [2], 37 nM	7.85	–
E31 [2], 111.1 nM	7.57	–
E31 [2], 333.3 nM	8.35	–
E31 [2], 1000 nM	9.03	–
E31 [2], 3000 nM	17.2	–
E31 [9], 4.1 nM	–	0.365
E31 [9], 12.3 nM	–	0.223
E31 [9], 37 nM	–	0.0335
E31 [9], 111.1 nM	–	0.0134
E31 [9], 333.3 nM	–	0.0218
E31 [9], 1000 nM	–	0.0402
E31 [9], 3000 nM	–	0.00669
E34 [7], 4.1 nM	2.17	–
E34 [7], 12.3 nM	4.29	–
E34 [7], 37 nM	6.54	–
E34 [7], 111.1 nM	7.64	–
E34 [7], 333.3 nM	9.65	–
E34 [7], 1000 nM	10.2	–
E34 [7], 3000 nM	10.4	–
E34 [14], 4.1 nM	–	0.609
E34 [14], 12.3 nM	–	0.423
E34 [14], 37 nM	–	0.163
E34 [14], 111.1 nM	–	0.126
E34 [14], 333.3 nM	–	0.0695
E34 [14], 1000 nM	–	0.0659
E34 [14], 3000 nM	–	0.0494
E57 [3], 4.1 nM	8.41	–
E57 [3], 12.3 nM	11.9	–
E57 [3], 37 nM	11	–
E57 [3], 111.1 nM	10.2	–
E57 [3], 333.3 nM	10.1	–
E57 [3], 1000 nM	9.67	–
E57 [3], 3000 nM	7.76	–
E57 [10], 4.1 nM	–	0.118
E57 [10], 12.3 nM	–	0.0366
E57 [10], 37 nM	–	0.00889
E57 [10], 111.1 nM	–	0.00993
E57 [10], 333.3 nM	–	0.00889
E57 [10], 1000 nM	–	0.0105
E57 [10], 3000 nM	–	0.00366
FT3469 [6], 4.1 nM	2.53	–
FT3469 [6], 12.3 nM	2.8	–
FT3469 [6], 37 nM	4.87	–
FT3469 [6], 111.1 nM	6.47	–
FT3469 [6], 333.3 nM	6.55	–
FT3469 [6], 1000 nM	7.04	–
FT3469 [6], 3000 nM	7.74	–
FT3469 [13], 4.1 nM	–	0.583
FT3469 [13], 12.3 nM	–	0.704
FT3469 [13], 37 nM	–	0.371
FT3469 [13], 111.1 nM	–	0.386
FT3469 [13], 333.3 nM	–	0.297
FT3469 [13], 1000 nM	–	0.239
FT3469 [13], 3000 nM	–	0.103
